Assay: Stability of the polymorphic form: XRPD, IR and DSC characterization repeated one year later
Assay type: physicochemical
Settings: solid from Example 11 (crystallised from 2-propanol)
Description: A PHILIPS X′ Pert diffractometer provided with a Cu tube and a secondary monochromator made of graphite (wavelength Kα Cu, 1.5419 Å) was used to record the X-ray powder diffractograms. Reception slot: 0.1 mm; Soller: 0.04 rad; antidiffusion slot and divergence slot: 1°.
2.61 g of Granisetron base is dissolved in 7.0 ml of 2-propanol, and is taken to reflux, when all the product is dissolved, the resultant dissolution is allowed to cool to 15° C. and the resultant solid is filtered and washed with 2-propanol. 2.47 g of Granisetron base is recovered (95%). Said Granisetron base is characterized as Form I with the following data of XRPD, IR and DSC: […]

- Stability of polymorphic form (XRPD, IR and DSC characterization repeated, same result obtained): stable
Compound: CN1C2CCCC1CC(NC(=O)c1nn(C)c3ccccc13)C2 (stereo not drawn) [Form I of Granisetron base, endo-1-methyl-N-(9-methyl-9-azabicycle[3.3.1]non-3-yl)-1H-indazole-3-carboxamide]
